Reference: EP0068715A1, “Beta-lactam antibacterial agents, their preparation and use” (BEECHAM GROUP PLC, priority 1981, dated 1983)

Key:
Experiment in all cases: standard MIC synergy test with amoxycillin
Assay type in all cases: cell-based
Details in all cases: amoxycillin alone, β-Lactamase Inhibitor: None
Proteus C889 = system: Proteus C889
Excerpt: (§1) In a standard MIC synergy test, the following data were obtained for the compounds of this invention:-

E. coli JT39 = system: E. coli JT39
Excerpt: as §1

Kleb. E70 = system: Kleb. E70
Excerpt: as §1

For CC1(C)S[C@@H]2[C@H](NC(=O)[C@H](N)c3ccc(O)cc3)C(=O)N2[C@H]1C(=O)O [amoxycillin], the “MIC of amoxycillin (μg/ml) Proteus C889” value (Proteus C889) was greater than 2000 µg/mL, the “MIC of amoxycillin (μg/ml) E. coli JT39” value (E. coli JT39) was 2000 µg/mL and the “MIC of amoxycillin (μg/ml) Kleb. E70” value (Kleb. E70) was 500 µg/mL.
